Results as given in patent US11427553B2, “Dihydrooxadiazinones” (Bayer Aktiengesellschaft, priority 2017, dated 2022).
Where a name gives a salt, the structure may show the parent alone. Read-outs that look alike come from different tables or passages of the source.

Key:
human full length PDE3B = human full length PDE3B (Homo sapiens (Human), UniProt Q13370); assay: Assay 5 PDE3B enzyme inhibition (3H-cAMP SPA); format: biochemical; conditions: Sf9 cell extract
Description: (§1) The commercially available 3H-cAMP Scintillation Proximity Assay (SPA, Perkin Elmer) system was used for enzyme inhibition studies. For the determination of the in vitro effect of example compounds on the PDE3B reactions 2 μl of the respective example compound solution in DMSO (serial dilutions) were placed in wells of microtiter plates (Isoplate-96/200W; Perkin Elmer). 50 μl of a dilution of PDE3B cell extract from Sf9 cells overexpressing human full length PDE3B (SB Drug Discovery, UK) in buffer A (50 mM Tris/HCl pH 7.5, 8.3 mM MgCl2, 1.7 mM EDTA, 0.2% BSA) was added. The dilution of the PDE3B cell extract was chosen such that the reaction kinetics was linear and less than 70% of the substrate was consumed (typical dilution 1:6000). The reaction was started by addition of 50 μl (0.025 μCi) of 1:2000 in buffer A w/o BSA diluted substrate [8-3H]adenosine 3′, 5′-cyclic phosphate (1 μCi/μl; Perkin Elmer). After incubation at room temperature for 60 min, the reaction was stopped by addition of 25 μl of a suspension containing 18 mg/ml yttrium scintillation proximity beads (Perkin Elmer) in water. The microtiter plates were sealed and measured in a Microbeta scintillation counter (PerkinElmer Wallac). IC50 values were determined from sigmoidal curves by plotting percentage PDE3B activity vs log compound concentration.

SK-MEL-3 cells = assay: Assay 1 cell proliferation measurement (CTG, 72 h), SK-MEL-3; format: cell-based, human; conditions: Assay 1, 72 h, Cell Titer Glo, read-out: SK-MEL-3 IC50 [nM] (melanoma)
Description: Cell Proliferation Measurement
The antiproliferative activity of the compounds of the general formula (I) was examined in vitro in human cancer cells. For this purpose, the appropriate number of cells (Hela: 800; SK-MEL-3: 1000; A549: 800) were plated in 384-well plates with appropriate growth medium ((A549: DMEM/Ham's F12 (Biochrom; #FG 4815 with stabile Glutamine), FCS 10% final (Biochrom; #S 0415); Hela: DMEM/Ham's F12 (Biochrom; #FG 4815 with stabile Glutamine), FCS 10% final (Biochrom; #S 0415); SK-MEL-3: McCoy's 5A (Biochrom; #F 1015), FCS 10% final (Biochrom; #S 0415), L-Alanyl-L-Glutamine final: 2 mM, (Biochrom; #K 0302)) and incubated at 37° C. overnight. After 24 h, cells on one plate (0 h plate) were treated with 30 μl/cavity of CTG solution (Promega Cell Titer Glo (catalogue #G755B and G756B)) and incubated at room temperature for 10 min, and luminescence was measured by means of a VICTOR V (Perkin Elmer), in order to determine cell viability on commencement of treatment. The cells on the test plate were treated with the compounds of the general formula (I) as and incubated at 37° C. for 72 h. The compounds were added to the cells by means of an HP D300 digital dispenser in a 10-step 2.5-fold dilution series generally starting at a maximum final drug concentration of 100 nM. As control, the cells were treated with vehicle (DMSO at 0.3% final concentration). After 72 h, the cells were treated with 30 μl/cavity of CTG solution (Promega Cell Titer Glo (catalogue #G755B and G756B)) and incubated at room temperature for 10 min. and luminescence was measured by means of a VICTOR V (Perkin Elmer), in order to determine cell viability at the end of treatment. The percentage effect on cell growth and the IC50 derived therefrom were determined for each test substance using the values from the 0 h plate […] and the DMSO control […]. The IC50 values were calculated using a 4-parameter fit.

HeLa cells = assay: Assay 1 cell proliferation measurement (CTG, 72 h), HeLa; format: cell-based, human; conditions: Assay 1, 72 h, Cell Titer Glo, read-out: HeLa IC50 [nM] (Cervical cancer)
Method in brief: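 CellTiter-Glo luminescence was read at treatment start (0 h plate) and after 72 h compound exposure at 37 °C. Doses were 2.5-fold steps, ten concentrations, top 100 nM final, 0.3% DMSO. Growth inhibition was scaled between 0 h and vehicle values, and IC50 was obtained by 4-parameter fitting.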

human full length PDE3A = human full length PDE3A (Homo sapiens (Human), UniProt Q14432); assay: Assay 4 PDE3A enzyme inhibition (3H-cAMP SPA); format: biochemical; conditions: Sf9 cell extract
Chain of human full length PDE3A (Q14432 whole entry): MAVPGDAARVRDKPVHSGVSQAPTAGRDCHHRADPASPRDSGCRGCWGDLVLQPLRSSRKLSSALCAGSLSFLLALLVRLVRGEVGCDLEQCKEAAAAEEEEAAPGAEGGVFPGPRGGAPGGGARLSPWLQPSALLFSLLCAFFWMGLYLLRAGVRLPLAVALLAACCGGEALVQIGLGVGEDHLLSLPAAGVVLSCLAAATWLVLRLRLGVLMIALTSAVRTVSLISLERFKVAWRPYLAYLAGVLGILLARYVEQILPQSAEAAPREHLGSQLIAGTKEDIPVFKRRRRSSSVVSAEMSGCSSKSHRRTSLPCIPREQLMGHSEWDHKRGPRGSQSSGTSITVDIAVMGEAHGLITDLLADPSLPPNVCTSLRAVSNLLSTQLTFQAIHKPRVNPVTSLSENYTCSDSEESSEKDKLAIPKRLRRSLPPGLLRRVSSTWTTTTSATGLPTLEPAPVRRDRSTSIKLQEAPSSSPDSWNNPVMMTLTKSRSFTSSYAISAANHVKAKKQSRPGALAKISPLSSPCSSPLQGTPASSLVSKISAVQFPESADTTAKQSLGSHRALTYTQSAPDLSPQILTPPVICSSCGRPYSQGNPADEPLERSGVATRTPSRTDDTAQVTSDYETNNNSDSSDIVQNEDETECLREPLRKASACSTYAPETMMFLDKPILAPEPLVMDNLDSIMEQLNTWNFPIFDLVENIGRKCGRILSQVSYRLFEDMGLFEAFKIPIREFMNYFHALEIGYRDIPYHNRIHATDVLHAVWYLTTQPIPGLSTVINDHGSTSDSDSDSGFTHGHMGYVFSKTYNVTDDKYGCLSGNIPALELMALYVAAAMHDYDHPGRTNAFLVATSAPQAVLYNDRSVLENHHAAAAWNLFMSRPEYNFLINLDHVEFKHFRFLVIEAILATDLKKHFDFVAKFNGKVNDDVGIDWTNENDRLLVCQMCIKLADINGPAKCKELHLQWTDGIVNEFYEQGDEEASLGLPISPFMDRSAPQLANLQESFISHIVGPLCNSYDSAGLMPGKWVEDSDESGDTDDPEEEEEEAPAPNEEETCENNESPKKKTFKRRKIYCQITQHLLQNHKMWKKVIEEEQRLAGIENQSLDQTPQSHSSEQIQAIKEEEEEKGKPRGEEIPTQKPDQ
Description: Assay 4 Method for PDE3A Enzyme Inhibition
as §1, with “PDE3A” for “PDE3B”, “1:5000).” for “1:6000).”

Chain of human full length PDE3B (Q13370 whole entry): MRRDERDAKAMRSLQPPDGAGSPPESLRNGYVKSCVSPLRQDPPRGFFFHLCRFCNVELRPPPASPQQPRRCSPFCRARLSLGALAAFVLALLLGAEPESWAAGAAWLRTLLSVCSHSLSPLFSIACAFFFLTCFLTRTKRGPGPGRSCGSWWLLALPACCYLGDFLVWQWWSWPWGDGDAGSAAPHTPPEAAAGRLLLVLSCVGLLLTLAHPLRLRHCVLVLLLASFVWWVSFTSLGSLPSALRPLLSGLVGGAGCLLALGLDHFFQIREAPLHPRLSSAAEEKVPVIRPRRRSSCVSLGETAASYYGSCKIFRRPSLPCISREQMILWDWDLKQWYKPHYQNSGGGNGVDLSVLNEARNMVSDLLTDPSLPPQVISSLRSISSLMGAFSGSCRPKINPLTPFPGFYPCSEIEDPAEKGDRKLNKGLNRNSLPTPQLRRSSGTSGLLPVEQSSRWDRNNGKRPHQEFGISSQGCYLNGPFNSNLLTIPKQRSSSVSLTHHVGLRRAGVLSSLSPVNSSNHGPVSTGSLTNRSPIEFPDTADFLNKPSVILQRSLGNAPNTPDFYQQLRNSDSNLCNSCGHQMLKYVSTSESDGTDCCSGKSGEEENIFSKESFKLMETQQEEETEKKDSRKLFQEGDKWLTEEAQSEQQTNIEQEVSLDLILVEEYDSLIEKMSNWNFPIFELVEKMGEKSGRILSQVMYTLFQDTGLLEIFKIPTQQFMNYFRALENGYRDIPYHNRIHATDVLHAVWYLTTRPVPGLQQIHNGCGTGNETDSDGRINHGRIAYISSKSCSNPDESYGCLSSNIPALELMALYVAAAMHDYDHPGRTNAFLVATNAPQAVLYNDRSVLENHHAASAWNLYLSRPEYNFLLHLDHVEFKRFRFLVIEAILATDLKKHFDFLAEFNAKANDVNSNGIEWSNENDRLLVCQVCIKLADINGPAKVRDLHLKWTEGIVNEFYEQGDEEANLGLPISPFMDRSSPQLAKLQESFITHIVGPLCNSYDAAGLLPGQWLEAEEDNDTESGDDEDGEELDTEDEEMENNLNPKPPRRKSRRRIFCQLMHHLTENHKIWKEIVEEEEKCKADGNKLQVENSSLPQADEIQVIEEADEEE

Structure (SMILES)	IC50 (human full length PDE3B) [µM]	IC50 (SK-MEL-3 cells; Homo sapiens, SK-MEL3) [nM]	IC50 (HeLa cells; Homo sapiens, HeLa) [nM]	IC50 (human full length PDE3A) [µM]	IC50 (SK-MEL-3 cells) [nM]	IC50 (HeLa cells) [nM]
O=C1NN=C(c2ccc(NCC(O)C(F)(F)F)c(C(F)(F)F)c2)CO1 (racemic) [Example 204, (rac)-5-[4-{[3,3,3-trifluoro-2-hydroxypropyl]amino}-3-(trifluoromethyl)phenyl]-3,6-dihydro-2H-1,3,4-oxadiazin-2-one]	0.11	2	1	0.08	–	–
CC1CC(C)N1c1ccc(C2=NNC(=O)OC2)cc1C(F)(F)F (racemic) [Example 207, (rac)-5-{4-[2,4-Dimethylazetidin-1-yl]-3-(trifluoromethyl)phenyl}-3,6-dihydro-2H-1,3,4-oxadiazin-2-one]	0.18	14	9	0.074	–	–
O=C1NN=C(c2ccc(NCC3CCCO3)c(C(F)(F)F)c2)CO1 (racemic) [Example 215, (rac)-5-[4-({[Oxolan-2-yl]methyl}amino)-3-(trifluoromethyl)phenyl]-3,6-dihydro-2H-1,3,4-oxadiazin-2-one]	0.1	3	2	0.066	–	–
O=C1NN=C(c2ccc(C3CCCOC3)c(C(F)(F)F)c2)CO1 (racemic) [Example 271, (rac)-5-{4-[Oxan-3-yl]-3-(trifluoromethyl)phenyl}-3,6-dihydro-2H-1,3,4-oxadiazin-2-one]	0.025	3	1	0.027	–	–
NC12CC1CN(c1ccc(C3=NNC(=O)OC3)cc1C(F)(F)F)C2 (racemic) [Example 275, (rac)-5-{4-[1-amino-3-azabicyclo[3.1.0]hexan-3-yl]-3-(trifluoromethyl)phenyl}-3,6-dihydro-2H-1,3,4-oxadiazin-2-one-salt with hydrochloric acid]	0.064	7	5	0.029	–	–
CC1OC(=O)NN=C1c1ccc(Br)cc1 (racemic) [Intermediate 72, (rac)-5-(4-Bromophenyl)-6-methyl-3,6-dihydro-2H-1,3,4-oxadiazin-2-one]	0.4	260	78	0.32	–	–
C[C@H]1C[C@H](C)N1c1ccc(C2=NNC(=O)OC2)cc1C(F)(F)F (relative stereo) [Example 208, (cis or trans)-5-{4-[2,4-Dimethylazetidin-1-yl]-3-(trifluoromethyl)phenyl}-3,6-dihydro-2H-1,3,4-oxadiazin-2-one]	0.14	–	–	0.11	7	5
CC1(F)CCN(c2ccc(C3=NNC(=O)OC3)cc2F)CC1 [Example 5, 5-[3-Fluoro-4-(4-fluoro-4-methylpiperidin-1-yl)phenyl]-3,6-dihydro-2H-1,3,4-oxadiazin-2-one]	0.097	5	3	0.139	–	–
O=C1NN=C(c2ccc(N3CCC(F)CC3)c(F)c2)CO1 [Example 6, 5-[3-Fluoro-4-(4-fluoropiperidin-1-yl)phenyl]-3,6-dihydro-2H-1,3,4-oxadiazin-2-one]	0.11	9	5	0.1	–	–
Cc1cc(C2=NNC(=O)OC2)ccc1C1=CCOCC1 [Example 10, 5-[4-(3,6-Dihydro-2H-pyran-4-yl)-3-methylphenyl]-3,6-dihydro-2H-1,3,4-oxadiazin-2-one]	0.23	43	15	0.22	–	–
Cc1cc(C2=NNC(=O)OC2)ccc1-c1cn[nH]c1 [Example 11, 5-[3-Methyl-4-(1H-pyrazol-4-yl)phenyl]-3,6-dihydro-2H-1,3,4-oxadiazin-2-one]	0.065	49	19	0.084	–	–
Cc1cc(C2=NNC(=O)OC2)ccc1-c1ccc(=O)[nH]c1 [Example 12, 5-[3-Methyl-4-(6-oxo-1,6-dihydropyridin-3-yl)phenyl]-3,6-dihydro-2H-1,3,4-oxadiazin-2-one]	0.03	58	20	0.031	–	–
Cc1cc(C2=NNC(=O)OC2)ccc1-c1cncnc1 [Example 14, 5-[3-Methyl-4-(pyrimidin-5-yl)phenyl]-3,6-dihydro-2H-1,3,4-oxadiazin-2-one]	0.071	64	49	0.063	–	–
Cc1cc(C2=NNC(=O)OC2)ccc1-c1cccc(F)c1 [Example 15, 5-(3′-Fluoro-2-methylbiphenyl-4-yl)-3,6-dihydro-2H-1,3,4-oxadiazin-2-one]	0.11	16	8	0.11	–	–
CC1CN(c2c(F)cc(C3=NNC(=O)OC3C)cc2F)CCO1 (stereo not shown) [Example 18, 5-{3,5-Difluoro-4-[2-methylmorpholin-4-yl]phenyl}-6-methyl-3,6-dihydro-2H-1,3,4-oxadiazin-2-one]	0.22	74	18	0.45	–	–
O=C1NN=C(c2cc(F)c(N3CCOCC3)c(F)c2)CO1 [Example 21, 5-[3,5-Difluoro-4-(morpholin-4-yl)phenyl]-3,6-dihydro-2H-1,3,4-oxadiazin-2-one]	0.185	> 67	15	0.175	–	–
N#Cc1cc(C2=NNC(=O)OC2)ccc1N1CCOCC1 [Example 22, 2-(Morpholin-4-yl)-5-(2-oxo-3,6-dihydro-2H-1,3,4-oxadiazin-5-yl)benzonitrile]	0.033	51	26	0.052	–	–
N#Cc1cc(C2=NNC(=O)OC2)cc(Cl)c1N1CCOCC1 [Example 23, 3-Chloro-2-(morpholin-4-yl)-5-(2-oxo-3,6-dihydro-2H-1,3,4-oxadiazin-5-yl)benzonitrile]	0.27	> 100	45	0.38	–	–
CC1CN(c2ccc(C3=NNC(=O)OC3)cc2F)CC(C)O1 (stereo not shown) [Example 24, 5-{4-[2,6-Dimethylmorpholin-4-yl]-3-fluorophenyl}-3,6-dihydro-2H-1,3,4-oxadiazin-2-one]	0.11	> 100	55	0.18	–	–
